Tests used:
[1] = pH, Eh and total chromium of soil cultures after growth; format: physicochemical; conditions: cell-free supernatants, after 32 hours of growth
Method: Immediately after collection in sterile containers, the soil samples were stored at 4° C. for 30 days before use. Soil dilutions (10^-1 g/mL) were made in sterile isotonic phosphate buffer. One mL of each soil dilution was inoculated into 165 mL sealed serum vials containing 50 mL of TSB with N2 in the headspace. The serum vials and their contents were sterilized prior to inoculation.
Cr(VI) was added to the culture broth as K2 CrO4 to a final concentration of about 20 mg/L of Cr(VI). Cultures were incubated, at 30° C. on a gyratory shaker at 100 rpm, in an inverted position to limit gas leakage. Samples were analyzed periodically for Cr(VI) concentration and cell density.
After 32 hours of growth, pH, Eh, and total chromium levels of the cultures of Example 6 were determined. The initial pH of TSB was 7.04. Eh was measured with a platinum electrode (Microelectrodes, Inc., Londonderry, N.H.) using an ACCUMET 50 digital pH meter (Fisher Scientific, Pittsburgh, Pa.). Total chromium was analyzed with inductively coupled plasma emission spectroscopy (Model 3410, ARL) of clarified cultures.

[2] = test system: soil cultures; format: cell-based; conditions: soil cultures of Example 6 after 32 hours of growth

[Cr+3] [Cr(III)]
Cr(III) precipitation out of solution [1]: no evidence of Cr(III) precipitating out of solution
bacterial growth inhibition related to Cr(III) [2]: no evidence of Cr(III) precipitating out of solution or bacterial growth inhibition related to Cr(III)

From US5681739A
